No end group written: not given here.
What was measured:
[1] = Fluorescence ANTS/DPX vesicle leakage assay in POPE/POPG/TOCL (72:23:5); settings: POPE/POPG/TOCL (72:23:5) 100 nm vesicles, P/L ≈ 1:30, mixtures 1:1, 10 mM HEPES pH 7.5, 155 mM NaCl, 30 °C, 600 s, % of Triton-X-100 leakage, mean of n = 3
Text: It could be argued that POPC/POPG (3:1) is not the most appropriate model system to describe a bacterial membrane, which rarely contains PC lipids. We therefore also performed leakage in another lipid system, POPE/POPG/TOCL (72:23:5), which is a good model of E. coli membranes[45],[69],[70]. […] For all of the other mutants discussed below, leakage was also studied both in POPC/POPG as well as POPE/POPG/TOCL, but since the results (synergy or no synergy) were in all cases the same, the latter data will not be presented in the text. All leakage data in POPE/POPG/TOCL (72:23:5) for charge mutants are summarized in Supplementary Table S4.
Leakage of small unilamellar vesicles induced by the peptides was studied using a standard fluorescence assay.
The appropriate lipids for each experiment were dissolved in CHCl3, together with 0.02 mol-% Rhodamine-PE (Rh-PE). […] This stock suspension was subjected to 10 freeze-thaw cycles and then frozen. Appropriate aliquots of the stock lipid suspension were unfrozen each day and extruded (41 times) through polycarbonate membranes with 100 nm pore size, and stored at room temperature overnight. The fluorophore and quencher outside the vesicles were removed by size exclusion chromatography using spin-columns (Pierce centrifuge column, 2 ml, Life Technologies GmbH, Darmstadt, Germany) filled with Sephacryl 100-HR (2 min, 1500 × g). For elution, a 10 mM HEPES buffer (pH 7.5) was used, containing 155 mM NaCl to balance the osmolarity. After extrusion and removal of the external dye and quencher, the lipid concentration usually decreases. Therefore, before each set of measurements a rhodamine spectrum was recorded to determine the actual concentration of lipids, which was referenced to a spectrum taken of vesicles made by sonification without any subsequent treatment.
Fluorescence experiments were performed on a FluoroMax2 spectrofluorimeter (HORIBA Jobin Yvon, Unterhaching, Germany) equipped with a thermostated sample holder and magnetic stirrer, using an excitation wavelength of 355 nm, an emission wavelength of 508 nm, and slit widths of 5 nm. The peptide solutions were placed in elution buffer in a 1 cm standard cuvette at 30 °C. 100 s after the start of the measurement lipid vesicles were added, and the intensity of the fluorescence at 508 nm was recorded. The leakage was measured during 600 s after addition of vesicles, and the measurement was terminated after addition of Triton-X-100 (0.25% v/v), which dissolved the vesicles, and yielded 100% leakage. To determine the background signal of the vesicles themselves, several blanks were recorded per measurement set. From the leakage values of the peptides alone and of the mixture of two peptides a synergy factor SF was calculated:3 SF=L(A+B)/[L(A)+L(B)] Here, L(A) is the leakage found with peptide A alone, L(B) is the leakage found with peptide B alone, and L(A + B) is the leakage found with the mixture of peptides A and B. In all cases the P/L was the same for both peptides, alone and in the mixture, so that in the mixture the total P/L was twice that of the individual peptide measurements. […] Measurements were repeated three times and average values and standard deviations calculated for the leakage and the synergy factors. An average SF ≥ 2 was taken to indicate synergy.

E. coli DSM 1103 = test: Checker-board assay (FICI); format: cell-based, Escherichia coli; settings: below 0.5 = synergistic activity
Description: A suitable method to study synergistic antimicrobial activity is the so-called checker-board assay, described in the Methods section. We performed such experiments on one Gram-negative bacterium, E. coli, and one Gram-positive one, S. aureus. From this method a fractional inhibitory concentration index (FICI) is determined, and when this is below 0.5, the peptides are said to have a synergistic effect against bacteria. This is the biologically relevant effect, but we are here interested in the atomistic details of the interactions behind the effect. Therefore we also use biophysical methods.
The antimicrobial activity of the peptides was investigated with a standard MIC assay[87],[88] on one Gram positive (Staphylococcus aureus, DSM 1104, ATCC 25923) and one Gram negative bacterial strain (Escherichia coli, DSM 1103, ATCC 25922). Bacteria were grown in Müller-Hinton medium (MH) at 37 °C and 220 rpm. Overnight cultures were inoculated from a single colony and grown for approximately 16 h. Day cultures were grown for approximately 3 h until they reached the exponential growth phase. These suspensions were diluted with MH-medium to a concentration of 10^6 colony-forming units (CFU) per ml. The microtiter plates (96 wells of 100 µL) were filled with 50 µL of MH, and serial 2-fold dilutions of each peptide were arranged in triplets along the columns. […] The MIC value was determined visually, as the lowest peptide concentration which inhibited bacterial growth in at least two out of three columns.
To visualize synergy between different peptides, a two-dimensional dilution assay was used[89],[90]. […] From these values, fractional inhibitory concentration indices (FICIs) were calculated with the following formula[89],[91]:1 FICI=[MIC(A)^comb/MIC(A)^alone]+[MIC(B)^comb/MIC(B)^alone] In this formula, MIC(A)^alone is the MIC value determined for peptide A alone, and MIC(A)^comb is the concentration of peptide A at the MIC determined for the combination. […]

[2] = Table S8 series (PGLa-to-MSI mutants)
[3] = Table S4 series (charge mutants)

Substance	Leakage, mean value [1, 2] [%]	Leakage, mean value [1, 3] [%]	FICI in combination with MAG2-WT (E. coli DSM 1103)	Leakage, mean value ([1]; Table S12 series (MSI-to-PGLa mutants)) [%]
GMASKIGAIAGKIAKVALKAL-NH2 (also: 15N-labeled Ala10) [PtM-A6I, PGLa single mutant A6I]	3.7	–	–	–
GIGKFLHSAKKFGKAFVGKIMNS-OH [MAG2-E19K, MAG2 charge mutant E19K]	–	1.6	–	–
KIAGKAGAIAGKIAKVALKAL-NH2 [PtM-a2, PGLa to MSI-103 mutant, three amino acids converted]	4.5	–	below 0.5	–
GIGKFLHSAKKFGKAFVGKIMNS-NH 2 (GIGKFLHSAKKFGKAFVGKIMNS-NH2) [MAG2-E19K-amide, amidated MAG2 E19K mutant]	–	2.9	–	–
GMASKAGKIAGKIAKVALKAL-NH2 (also: 15N-labeled Ala10) [PtM-A8K, PGLa single mutant A8K]	7.1	–	–	–
GMASKAGAIAGKIAKIAGKIA-NH2 [PtM-c1, PGLa to MSI-103 mutant, segment C replaced]	1.5	–	below 0.5	–
KIAGKIGKIAGKIAKIAGKIA-NH2 [MtP-A7G, MSI-103 to PGLa single mutant A7G]	–	–	below 0.5	5.1

From PMC5640672, “Molecular mechanism of synergy between the antimicrobial peptides PGLa and magainin 2” (Scientific Reports, 2017)
